The experiment concerns the target T1, GPR73 (prokineticin 1 receptor) (Homo sapiens, UniProt Q8TCW9).
T1 construct: expressed in transfected cells; host or cells: HEK 293
The experiment in a line: PK1 functional assay: Ca2+ mobilization screening for PK1 antagonists on the FLIPR. Format: cell-based. The note with it: HEK 293 GPR73 cells, multiple values = multiple testing; for Ca^2+ Mobilization % Inh @ 10 μM: 10 μM compound; for inhibition at 10 µM: HEK293, 10 μM compound, read-out: Ca^2+ Mobilization % Inh @ 10 μM; for pIC50: PK1 ligand preparation at its EC50, read-out: Ca^2+ Mobilization IC50. The essentials: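 HEK293 cells expressing human GPR73 were loaded with Calcium Plus dye, then on FLIPR given compound for 4 min 15 s before PK1 ligand at its predetermined EC50. Baseline-subtracted fluorescence over 1 min 45 s gave percent inhibition versus maximal signal; IC50 fitted.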
On the technique in general: Calcium assays in cells follow changes in intracellular calcium, usually with a dye or a luminescent sensor.

Molecules are shown by their SMILES. pIC50: −log10 of the molar value. “And” between values parts separate entries of the source, which are not always exact repeats. Identical values can stand only once.

In general, pIC50 refers to the IC50 on a negative log10 scale, so that one unit is a factor of ten.

T1 sequence (Q8TCW9 whole entry, species assumed): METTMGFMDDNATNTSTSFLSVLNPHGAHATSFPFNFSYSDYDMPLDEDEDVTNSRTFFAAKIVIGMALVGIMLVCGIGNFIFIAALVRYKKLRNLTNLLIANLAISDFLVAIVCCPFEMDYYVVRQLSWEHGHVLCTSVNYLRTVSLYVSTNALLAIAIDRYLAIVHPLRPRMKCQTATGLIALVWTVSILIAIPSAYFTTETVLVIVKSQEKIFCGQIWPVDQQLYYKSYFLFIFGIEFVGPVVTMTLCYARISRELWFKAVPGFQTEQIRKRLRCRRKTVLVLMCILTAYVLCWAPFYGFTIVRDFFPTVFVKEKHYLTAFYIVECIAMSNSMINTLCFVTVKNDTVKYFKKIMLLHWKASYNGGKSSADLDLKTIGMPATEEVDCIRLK

With `COc1ccc(Cn2c(NCc3cccnc3N)nc(=O)n(Cc3ccc(F)cc3)c2=O)cc1` [Cpd 8], the “Ca^2+ Mobilization % Inh @ 10 μM” value turned out to be 86%; the inhibition at 10 µM was determined as 89%; the pIC50 is 6.27 and 6.17.

On to `COc1ccc(Cn2c(NCc3cccnc3N)nc(=O)n(Cc3ccc(I)cc3)c2=O)cc1` [Cpd 89], for which the inhibition at 10 µM stood at 82% and the pIC50 is 6.09.

Regarding `Cc1cc(C)c(CNc2nc(=O)n(Cc3ccc4snnc4c3)c(=O)n2Cc2ccc(OC(F)F)cc2)cn1` [Cpd 196], the inhibition at 10 µM was determined as 84% and the pIC50 was 6.35.

As for `COc1ccc(Cn2c(CCc3ccncc3)cc(=O)n(Cc3ccc(OC)cc3)c2=O)cc1` [Cpd 183], the inhibition at 10 µM was found to be 68% and the pIC50 is 5.61.

`CNc1ncccc1CNc1nc(=O)n(Cc2ccc(F)cc2)c(=O)n1Cc1ccc(OC)cc1` [Cpd 14]: the inhibition at 10 µM stood at 90% and the pIC50 was 6.10.

In the case of `COc1ccc(Cn2c(NCc3ccccn3)nc(=O)n(Cc3ccc(OC)cc3)c2=O)cc1` [Cpd 39], the “Ca^2+ Mobilization % Inh @ 10 μM” value is recorded as 95%; the inhibition at 10 µM came to 92%; the pIC50 was 7.20 and 7.09.

With `COCCCCCn1c(NCc2cccnc2N)nc(=O)n(Cc2ccc(Cl)cc2)c1=O` [Cpd 256], the inhibition at 10 µM came to 99% and the pIC50 is 6.93.

With `COc1ccc(Cn2c(NCc3ccncc3)nc(=O)n(Cc3ccc(OC)cc3)c2=O)cc1` [Cpd 41], the inhibition at 10 µM is 72% and the pIC50 is 5.97.

Turning to `COc1ccc(Cn2c(NCc3cnc(C)cc3C)nc(=O)n(Cc3ccc(OC)c(F)c3)c2=O)cc1` [Cpd 218], the inhibition at 10 µM was 94% and the pIC50 is 6.98.

Regarding `COc1ccc(Cn2c(NCc3cnc(C)cc3C)nc(=O)n(Cc3ccc4snnc4c3)c2=O)cc1` [Cpd 217], the inhibition at 10 µM worked out at 81% and the pIC50 is 6.00.

Take `COC(=O)c1ccc(Cn2c(NCc3cccnc3N)nc(=O)n(Cc3ccc(OC)cc3)c2=O)cc1` [Cpd 36]: the inhibition at 10 µM stood at 84% and the pIC50 was 6.57.

With `CCOc1ccc(Cn2c(=O)nc(NCc3cccnc3N)n(Cc3ccc(OC)cc3)c2=O)cc1` [Cpd 46], the inhibition at 10 µM is 80% and the pIC50 was 6.28.

Regarding `COc1ccc(Cn2c(NCc3cccnc3N)nc(=O)n(Cc3ccc([N+](=O)[O-])cc3)c2=O)cc1` [Cpd 47], the inhibition at 10 µM came to 80% and the pIC50 was 6.08.

Consider `COc1ccc(Cn2c(NCc3cccnc3NC3CCCCC3)nc(=O)n(Cc3ccc(F)cc3)c2=O)cc1` [Cpd 31], for which the inhibition at 10 µM worked out at 91% and the pIC50 is 6.03.

Take `COc1ccc(Cn2c(NCc3cccnc3N)nc(=O)n(Cc3ccc(C#N)cc3)c2=O)cc1` [Cpd 44]: the inhibition at 10 µM came out at 66% and the pIC50 was 5.69.

For the compound `COc1ccc(Cn2c(NCc3c(C)cc(C)nc3N)nc(=O)n(Cc3ccc4c(c3)OCO4)c2=O)cc1` [Cpd 220], the inhibition at 10 µM turned out to be 98% and the pIC50 is 7.37.

Take `COc1ccc(Cn2c(=O)nc(NCc3cccnc3N)n(Cc3ccc(OC)cc3F)c2=O)cc1` [Cpd 205]: the inhibition at 10 µM came to 102% and the pIC50 was 6.97.

Turning to `COc1ccc(Cn2c(=O)nc(NCc3cccnc3N)n(Cc3ccc(NC(C)=O)cc3)c2=O)cc1` [Cpd 37], the inhibition at 10 µM is 86% and the pIC50 is 6.60.

For `COc1ccc(Cn2c(NCc3cccnc3N)nc(=O)n(Cc3cc4ccccc4o3)c2=O)cc1` [Cpd 23], the inhibition at 10 µM was 97% and the pIC50 is 6.64.

For the compound `COCCCCCn1c(=O)nc(NCc2c(C)cc(C)nc2N)n(Cc2ccc(OC)cc2)c1=O` [Cpd 252, 6-[(2-Amino-4,6-dimethyl-pyridin-3-ylmethyl)-amino]-1-(4-methoxy-benzyl)-3-(5-methoxy-pentyl)-1H-[1,3,5]triazine-2,4-dione], the inhibition at 10 µM was 71% and the pIC50 is 5.87.

In the case of `COc1ccc(Cn2c(=O)nc(NCc3cccnc3N)n(Cc3ccc(O)cc3)c2=O)cc1` [Cpd 33, 6-[(2-Amino-pyridin-3-ylmethyl)-amino]-1-(4-hydroxy-benzyl)-3-(4-methoxy-benzyl)-1H-[1,3,5]triazine-2,4-dione], the “Ca^2+ Mobilization % Inh @ 10 μM” value worked out at 102%; the inhibition at 10 µM was found to be 95%; the pIC50 is 7.31 and 7.11.

As for `COc1ccc(Cn2c(NCc3cnc(C)cc3C)nc(=O)n(Cc3ccc(F)cc3)c2=O)cc1` [Cpd 60], the inhibition at 10 µM turned out to be 88% and the pIC50 is 6.46.

For `COc1ccc(Cn2c(NCc3ccc[n+]([O-])c3)nc(=O)n(Cc3ccc(OC)cc3)c2=O)cc1` [Cpd 53], the inhibition at 10 µM turned out to be 45% and the pIC50 is below 5.00.

On to `COc1ccc(Cn2c(NCc3cnc(C)cn3)nc(=O)n(Cc3ccc(OC)cc3)c2=O)cc1` [Cpd 247], for which the “Ca^2+ Mobilization % Inh @ 10 μM” value is recorded as 97%; the inhibition at 10 µM stood at 100%; the pIC50 is 7.57 and 7.52.

Take `COc1ccc(Cn2c(CCc3cccnc3N)cc(=O)n(Cc3ccc(OC)cc3)c2=O)cc1` [Cpd 199, 6-[2-(2-Amino-pyridin-3-yl)-ethyl]-1,3-bis-(4-methoxy-benzyl)-1H-pyrimidine-2,4-dione]: the “Ca^2+ Mobilization % Inh @ 10 μM” value was found to be 95%; the inhibition at 10 µM was 92%; the pIC50 is 6.77 and 6.16.

`COc1ccc(Cn2c(CCc3cccc(N)n3)cc(=O)n(Cc3ccc(OC)cc3)c2=O)cc1` [Cpd 223, 6-[2-(6-Amino-pyridin-2-yl)-ethyl]-1,3-bis-(4-methoxy-benzyl)-1H-pyrimidine-2,4-dione]: the inhibition at 10 µM was determined as 53% and the pIC50 is 5.25.

In the case of `COc1ccc(Cn2c(NCc3ccc(N)nc3)nc(=O)n(Cc3ccc(Cl)cc3)c2=O)cc1` [Cpd 5], the inhibition at 10 µM is 81% and the pIC50 was 5.95.

In the case of `COc1ccc(Cn2c(NCc3cccnc3N)nc(=O)n(Cc3ccc(OC(F)F)cc3)c2=O)cc1` [Cpd 84], the inhibition at 10 µM is 70% and the pIC50 was 5.91.

Consider `COc1ccc(Cn2c(=O)nc(NCc3cccnc3N)n(Cc3cccc4[nH]ccc34)c2=O)cc1` [Cpd 138], for which the “Ca^2+ Mobilization % Inh @ 10 μM” value is listed as 73%; the inhibition at 10 µM came to 61%; the pIC50 is 5.82 and 5.57.

On to `COc1ccc(Cn2c(=O)nc(NCc3cccnc3N)n(Cc3ccc(S(C)(=O)=O)cc3)c2=O)cc1` [Cpd 131], for which the inhibition at 10 µM was 100% and the pIC50 is 6.91.

With `COc1ccc(Cn2c(=O)nc(NCc3cccnc3N)n(Cc3ccc(C(N)=O)cc3)c2=O)cc1` [Cpd 52], the inhibition at 10 µM is 94% and the pIC50 is 6.01.

`COc1ccc(Cn2c(NCc3cccnc3NCCN)nc(=O)n(Cc3ccc(F)cc3)c2=O)cc1` [Cpd 30]: the inhibition at 10 µM worked out at 68% and the pIC50 was 5.91.

Regarding `CSc1ccc(Cn2c(=O)nc(NCc3c(C)cc(C)nc3N)n(Cc3ccc(OC(F)F)cc3)c2=O)cc1` [Cpd 173], the inhibition at 10 µM turned out to be 97% and the pIC50 was 6.68.

With `COc1ccc(Cn2c(NCc3cccnc3NCCSC)nc(=O)n(Cc3ccc(OC)cc3)c2=O)cc1` [Cpd 66], the inhibition at 10 µM was 92% and the pIC50 was 6.40.

With `COc1ccc(Cn2c(NCc3cccnc3N)nc(=O)n(Cc3ccc(O)cc3)c2=O)cc1` [Cpd 54, 6-[(2-Amino-pyridin-3-ylmethyl)-amino]-3-(4-hydroxy-benzyl)-1-(4-methoxy-benzyl)-1H-[1,3,5]triazine-2,4-dione], the “Ca^2+ Mobilization % Inh @ 10 μM” value was 42% and 64%; the pIC50 is 5.46 and < 5.00.

With `Cc1cc(C)c(CNc2nc(=O)n(Cc3ccc4c(c3)OCO4)c(=O)n2Cc2ccc(OC(F)F)cc2)cn1` [Cpd 208], the inhibition at 10 µM is 73% and the pIC50 was 5.90.

With `COc1ccc(Cn2c(NCc3cnc(C)cc3C)nc(=O)n(Cc3ccc4c(c3)OCCO4)c2=O)cc1` [Cpd 209], the inhibition at 10 µM was determined as 51% and the pIC50 is 5.11.

Consider `Cc1ccc(Cn2c(=O)nc(NCc3cnc(C)cc3C)n(Cc3ccc(OC(F)F)cc3)c2=O)cc1` [Cpd 161], for which the inhibition at 10 µM was 53% and the pIC50 was 5.32.

On to `CCc1ccc(Cn2c(NCc3cccnc3N)nc(=O)n(Cc3ccc(OC)cc3)c2=O)cc1` [Cpd 63], for which the inhibition at 10 µM is 83% and the pIC50 is 6.57.

In the case of `Cc1cc(C)c(CNc2nc(=O)n(Cc3ccc(CO)cc3)c(=O)n2Cc2ccc(OC(F)F)cc2)cn1` [Cpd 191], the inhibition at 10 µM was 50% and the pIC50 was 5.08.

Regarding `COc1ccc(Cn2c(NCc3cnc(C)cc3C)nc(=O)n(Cc3ccccc3OC)c2=O)cc1` [Cpd 144], the inhibition at 10 µM came out at 36% and the pIC50 was below 5.00.

Turning to `Cn1nnc2cc(Cn3c(=O)nc(NCc4cccnc4N)n(Cc4ccc5c(c4)CCO5)c3=O)ccc21` [Cpd 244], the inhibition at 10 µM stood at 94% and the pIC50 was 6.92.

Consider `Nc1ncccc1CNc1nc(=O)n(Cc2ccc3snnc3c2)c(=O)n1Cc1ccc2c(c1)CCO2` [Cpd 242], for which the inhibition at 10 µM came out at 95% and the pIC50 was 6.60.

Turning to `COc1ccc(Cn2c(NCc3cccnc3N3CCOCC3)nc(=O)n(Cc3ccc(OC)cc3)c2=O)cc1` [Cpd 20], the inhibition at 10 µM turned out to be 95% and the negative-log IC50 (pIC50) is 6.75.

Regarding `COc1ccc(Cn2c(=O)nc(NCc3cccnc3N)n(Cc3ccc4sccc4c3)c2=O)cc1` [Cpd 140], the inhibition at 10 µM stood at 91% and the pIC50 was 6.72.

As for `COc1ccc(Cn2c(NCc3cc(C)ccn3)nc(=O)n(Cc3ccc(OC)cc3)c2=O)cc1` [Cpd 62], the inhibition at 10 µM amounted to 52% and the pIC50 was 5.69.

As to `Cc1cc(C)c(CNc2nc(=O)n(Cc3ccc(I)cc3)c(=O)n2Cc2ccc(OC(F)F)cc2)cn1` [Cpd 159], the inhibition at 10 µM came out at 31% and the pIC50 is below 5.00.
